From ChEMBL document CHEMBL5303573, “Mapping human microbiome drug metabolism by gut bacteria and their genes” (Nature, 2019)

Tests used:
[1] = bacteroides thetaiotaomicron, 12 h, 2 µM
Description: The drug is tested on Bacteroides thetaiotaomicron strain: VPI-5482 for biotransformation. The drug concentrations were measured before and after a 12-h incubation by liquid-chromatography-coupled mass spectrometry (LC–MS)

[2] = anaerostipes sp., 12 h, 2 µM
Description: The drug is tested on Anaerostipes sp. strain: fecal isolate for biotransformation. The drug concentrations were measured before and after a 12-h incubation by liquid-chromatography-coupled mass spectrometry (LC–MS)

[3] = The drug is tested on Bacteroides xylanisolvens strain: DSM18836 for biotransformation. The drug concentrations were measured before and after a 12-h incubation by liquid-chromatography-coupled mass spectrometry (LC–MS); settings: 2 µM
[4] = The drug is tested on Ruminococcus gnavus strain: ATCC29149 for biotransformation. The drug concentrations were measured before and after a 12-h incubation by liquid-chromatography-coupled mass spectrometry (LC–MS); settings: mediterraneibacter gnavus, 2 µM
[5] = The drug is tested on Dorea formicigenerans strain: ATCC27755 for biotransformation. The drug concentrations were measured before and after a 12-h incubation by liquid-chromatography-coupled mass spectrometry (LC–MS); settings: 2 µM
[6] = bacteroides thetaiotaomicron, 12 h, 2 µM; remark: listed apart in the source
Description: The drug is tested on Bacteroides thetaiotaomicron strain: 7330 for biotransformation. The drug concentrations were measured before and after a 12-h incubation by liquid-chromatography-coupled mass spectrometry (LC–MS)

[7] = The drug is tested on Ruminococcus torques strain: ATCC27756 for biotransformation. The drug concentrations were measured before and after a 12-h incubation by liquid-chromatography-coupled mass spectrometry (LC–MS); type: ADME; set-up: dose 2 uM, timepoint 0 vs 12 hours; settings: 2 µM
[8] = The drug is tested on Bacteroides finegoldii strain: DSM17565 for biotransformation. The drug concentrations were measured before and after a 12-h incubation by liquid-chromatography-coupled mass spectrometry (LC–MS); settings: 2 µM
[9] = The drug is tested on Bacteroides coprophilus strain: DSM18228 for biotransformation. The drug concentrations were measured before and after a 12-h incubation by liquid-chromatography-coupled mass spectrometry (LC–MS); settings: 2 µM
[10] = bifidobacterium adolescentis, 12 h, 2 µM
Description: The drug is tested on Bifidobacterium adolescentis strain: ATCC 15703 for biotransformation. The drug concentrations were measured before and after a 12-h incubation by liquid-chromatography-coupled mass spectrometry (LC–MS)

[11] = The drug is tested on Anaerotruncus colihominis strain: DSM17241 for biotransformation. The drug concentrations were measured before and after a 12-h incubation by liquid-chromatography-coupled mass spectrometry (LC–MS); settings: 2 µM
[12] = parabacteroides distasonis, 12 h, 2 µM
Description: The drug is tested on Parabacteroides distasonis strain: ATCC8503 for biotransformation. The drug concentrations were measured before and after a 12-h incubation by liquid-chromatography-coupled mass spectrometry (LC–MS)

[13] = roseburia intestinalis, 12 h, 2 µM
Description: The drug is tested on Roseburia intestinalis strain: L1-82 for biotransformation. The drug concentrations were measured before and after a 12-h incubation by liquid-chromatography-coupled mass spectrometry (LC–MS)

[14] = bacteroides thetaiotaomicron, 12 h, 2 µM; remark: listed apart in the source
Description: The drug is tested on Bacteroides thetaiotaomicron strain: 3731 for biotransformation. The drug concentrations were measured before and after a 12-h incubation by liquid-chromatography-coupled mass spectrometry (LC–MS)

[15] = The drug is tested on Alistipes indistinctus strain: DSM22520 for biotransformation. The drug concentrations were measured before and after a 12-h incubation by liquid-chromatography-coupled mass spectrometry (LC–MS); settings: 2 µM
[16] = The drug is tested on Bifidobacterium longum subsp. Infantis strain: CCUG52486 for biotransformation. The drug concentrations were measured before and after a 12-h incubation by liquid-chromatography-coupled mass spectrometry (LC–MS); settings: 2 µM
[17] = bacteroides fragilis, 12 h, 2 µM
Description: The drug is tested on Bacteroides fragilis strain: 3397 (T10) for biotransformation. The drug concentrations were measured before and after a 12-h incubation by liquid-chromatography-coupled mass spectrometry (LC–MS)

[18] = bacteroides intestinalis, 12 h, 2 µM
Description: The drug is tested on Bacteroides intestinalis strain: DSM17393 for biotransformation. The drug concentrations were measured before and after a 12-h incubation by liquid-chromatography-coupled mass spectrometry (LC–MS)

[19] = The drug is tested on Clostridium sp. strain: fecal isolate for biotransformation. The drug concentrations were measured before and after a 12-h incubation by liquid-chromatography-coupled mass spectrometry (LC–MS); settings: 2 µM

CN(C)CCOC(C)(c1ccccc1)c1ccccn1.O=C(O)CCC(=O)O (stereo unspecified) [DOXYLAMINE SUCCINATE]
Bacterial Biotransformation [1]: Compound NOT metabolized | Bacterial Biotransformation [2]: Compound NOT metabolized | Bacterial Biotransformation [3]: Compound NOT metabolized | Bacterial Biotransformation [4]: Compound NOT metabolized | Bacterial Biotransformation [5]: Compound NOT metabolized | Bacterial Biotransformation [6]: Compound NOT metabolized | Bacterial Biotransformation [7]: Compound NOT metabolized | Bacterial Biotransformation [8]: Compound NOT metabolized | Bacterial Biotransformation [9]: Compound NOT metabolized | Bacterial Biotransformation [10]: Compound NOT metabolized | Bacterial Biotransformation [11]: Compound NOT metabolized | Bacterial Biotransformation [12]: Compound NOT metabolized | Bacterial Biotransformation [13]: Compound NOT metabolized | Bacterial Biotransformation [14]: Compound NOT metabolized | Bacterial Biotransformation [15]: Compound NOT metabolized | Bacterial Biotransformation [16]: Compound NOT metabolized | Bacterial Biotransformation [17]: Compound NOT metabolized | Bacterial Biotransformation [18]: Compound NOT metabolized

CC(C)c1c(CN(C)C(C)Cc2ccccc2)n(C)n(-c2ccccc2)c1=O (stereo unspecified) [FAMPROFAZONE]
Bacterial Biotransformation [1]: Compound metabolized | Bacterial Biotransformation [2]: Compound metabolized | Bacterial Biotransformation [3]: Compound metabolized | Bacterial Biotransformation [4]: Compound NOT metabolized | Bacterial Biotransformation [5]: Compound metabolized | Bacterial Biotransformation [6]: Compound metabolized | Bacterial Biotransformation [7]: Compound NOT metabolized | Bacterial Biotransformation [8]: Compound metabolized | Bacterial Biotransformation [9]: Compound metabolized | Bacterial Biotransformation [10]: Compound NOT metabolized | Bacterial Biotransformation [12]: Compound metabolized | Bacterial Biotransformation [13]: Compound NOT metabolized | Bacterial Biotransformation [14]: Compound metabolized | Bacterial Biotransformation [15]: Compound NOT metabolized | Bacterial Biotransformation [16]: Compound NOT metabolized | Bacterial Biotransformation [17]: Compound metabolized | Bacterial Biotransformation [18]: Compound metabolized

CC(C)(C(=O)O)c1ccc(C(O)CCCN2CCC(C(O)(c3ccccc3)c3ccccc3)CC2)cc1 (stereo unspecified) [FEXOFENADINE]
Bacterial Biotransformation [1]: Compound NOT metabolized | Bacterial Biotransformation [2]: Compound NOT metabolized | Bacterial Biotransformation [4]: Compound NOT metabolized | Bacterial Biotransformation [5]: Compound NOT metabolized | Bacterial Biotransformation [6]: Compound NOT metabolized | Bacterial Biotransformation [7]: Compound NOT metabolized | Bacterial Biotransformation [8]: Compound NOT metabolized | Bacterial Biotransformation [19]: Compound NOT metabolized | Bacterial Biotransformation [9]: Compound NOT metabolized | Bacterial Biotransformation [10]: Compound NOT metabolized | Bacterial Biotransformation [11]: Compound NOT metabolized | Bacterial Biotransformation [13]: Compound NOT metabolized | Bacterial Biotransformation [14]: Compound NOT metabolized | Bacterial Biotransformation [15]: Compound NOT metabolized | Bacterial Biotransformation [16]: Compound NOT metabolized | Bacterial Biotransformation [17]: Compound NOT metabolized | Bacterial Biotransformation [18]: Compound NOT metabolized

OCCN1CCN(CCCN2c3ccccc3Sc3ccc(C(F)(F)F)cc32)CC1 [FLUPHENAZINE]
Bacterial Biotransformation [1]: Compound metabolized | Bacterial Biotransformation [2]: Compound metabolized | Bacterial Biotransformation [3]: Compound metabolized | Bacterial Biotransformation [4]: Compound NOT metabolized | Bacterial Biotransformation [5]: Compound metabolized | Bacterial Biotransformation [6]: Compound metabolized | Bacterial Biotransformation [7]: Compound NOT metabolized | Bacterial Biotransformation [8]: Compound metabolized | Bacterial Biotransformation [9]: Compound NOT metabolized | Bacterial Biotransformation [10]: Compound NOT metabolized | Bacterial Biotransformation [12]: Compound metabolized | Bacterial Biotransformation [13]: Compound metabolized | Bacterial Biotransformation [14]: Compound metabolized | Bacterial Biotransformation [15]: Compound NOT metabolized | Bacterial Biotransformation [16]: Compound NOT metabolized | Bacterial Biotransformation [17]: Compound metabolized | Bacterial Biotransformation [18]: Compound metabolized

COCCCC/C(=N\OCCN)c1ccc(C(F)(F)F)cc1.O=C(O)/C=C\C(=O)O [FLUVOXAMINE MALEATE]
Bacterial Biotransformation [1]: Compound metabolized | Bacterial Biotransformation [2]: Compound NOT metabolized | Bacterial Biotransformation [3]: Compound NOT metabolized | Bacterial Biotransformation [4]: Compound NOT metabolized | Bacterial Biotransformation [5]: Compound NOT metabolized | Bacterial Biotransformation [6]: Compound metabolized | Bacterial Biotransformation [7]: Compound NOT metabolized | Bacterial Biotransformation [8]: Compound NOT metabolized | Bacterial Biotransformation [19]: Compound metabolized | Bacterial Biotransformation [9]: Compound metabolized | Bacterial Biotransformation [10]: Compound NOT metabolized | Bacterial Biotransformation [11]: Compound NOT metabolized | Bacterial Biotransformation [13]: Compound NOT metabolized | Bacterial Biotransformation [14]: Compound metabolized | Bacterial Biotransformation [15]: Compound NOT metabolized | Bacterial Biotransformation [16]: Compound NOT metabolized | Bacterial Biotransformation [17]: Compound metabolized | Bacterial Biotransformation [18]: Compound NOT metabolized

COc1ccccc1OCC(O)COC(N)=O (stereo unspecified) [METHOCARBAMOL]
Bacterial Biotransformation [1]: Compound NOT metabolized | Bacterial Biotransformation [2]: Compound NOT metabolized | Bacterial Biotransformation [3]: Compound NOT metabolized | Bacterial Biotransformation [4]: Compound NOT metabolized | Bacterial Biotransformation [5]: Compound NOT metabolized | Bacterial Biotransformation [6]: Compound NOT metabolized | Bacterial Biotransformation [7]: Compound NOT metabolized | Bacterial Biotransformation [8]: Compound NOT metabolized | Bacterial Biotransformation [9]: Compound NOT metabolized | Bacterial Biotransformation [10]: Compound NOT metabolized | Bacterial Biotransformation [11]: Compound NOT metabolized | Bacterial Biotransformation [12]: Compound NOT metabolized | Bacterial Biotransformation [13]: Compound NOT metabolized | Bacterial Biotransformation [14]: Compound NOT metabolized | Bacterial Biotransformation [15]: Compound NOT metabolized | Bacterial Biotransformation [16]: Compound NOT metabolized | Bacterial Biotransformation [17]: Compound NOT metabolized | Bacterial Biotransformation [18]: Compound NOT metabolized

CN1C(=O)CC(C)(c2ccccc2)C1=O (stereo unspecified) [METHSUXIMIDE]
Bacterial Biotransformation [1]: Compound NOT metabolized | Bacterial Biotransformation [2]: Compound NOT metabolized | Bacterial Biotransformation [3]: Compound NOT metabolized | Bacterial Biotransformation [4]: Compound NOT metabolized | Bacterial Biotransformation [5]: Compound NOT metabolized | Bacterial Biotransformation [6]: Compound NOT metabolized | Bacterial Biotransformation [7]: Compound NOT metabolized | Bacterial Biotransformation [8]: Compound NOT metabolized | Bacterial Biotransformation [19]: Compound metabolized | Bacterial Biotransformation [9]: Compound NOT metabolized | Bacterial Biotransformation [10]: Compound NOT metabolized | Bacterial Biotransformation [11]: Compound NOT metabolized | Bacterial Biotransformation [14]: Compound NOT metabolized | Bacterial Biotransformation [15]: Compound NOT metabolized | Bacterial Biotransformation [16]: Compound NOT metabolized | Bacterial Biotransformation [17]: Compound NOT metabolized | Bacterial Biotransformation [18]: Compound NOT metabolized

C#C[C@]1(OC(C)=O)CC[C@H]2[C@@H]3CCC4=CC(=O)CC[C@@H]4[C@H]3CC[C@@]21C [NORETHINDRONE ACETATE]
Bacterial Biotransformation [1]: Compound metabolized | Bacterial Biotransformation [2]: Compound metabolized | Bacterial Biotransformation [3]: Compound metabolized | Bacterial Biotransformation [4]: Compound metabolized | Bacterial Biotransformation [5]: Compound NOT metabolized | Bacterial Biotransformation [6]: Compound metabolized | Bacterial Biotransformation [7]: Compound metabolized | Bacterial Biotransformation [8]: Compound metabolized | Bacterial Biotransformation [19]: Compound metabolized | Bacterial Biotransformation [9]: Compound metabolized | Bacterial Biotransformation [10]: Compound NOT metabolized | Bacterial Biotransformation [11]: Compound metabolized | Bacterial Biotransformation [12]: Compound NOT metabolized | Bacterial Biotransformation [14]: Compound metabolized | Bacterial Biotransformation [15]: Compound metabolized | Bacterial Biotransformation [16]: Compound NOT metabolized | Bacterial Biotransformation [17]: Compound metabolized | Bacterial Biotransformation [18]: Compound metabolized

Cc1ccccc1C(OCCN(C)C)c1ccccc1.O=C(O)CC(O)(CC(=O)O)C(=O)O (stereo unspecified) [ORPHENADRINE CITRATE]
Bacterial Biotransformation [1]: Compound NOT metabolized | Bacterial Biotransformation [2]: Compound NOT metabolized | Bacterial Biotransformation [4]: Compound NOT metabolized | Bacterial Biotransformation [5]: Compound NOT metabolized | Bacterial Biotransformation [6]: Compound NOT metabolized | Bacterial Biotransformation [7]: Compound NOT metabolized | Bacterial Biotransformation [8]: Compound NOT metabolized | Bacterial Biotransformation [9]: Compound NOT metabolized | Bacterial Biotransformation [11]: Compound NOT metabolized | Bacterial Biotransformation [12]: Compound NOT metabolized | Bacterial Biotransformation [13]: Compound NOT metabolized | Bacterial Biotransformation [14]: Compound NOT metabolized | Bacterial Biotransformation [15]: Compound NOT metabolized | Bacterial Biotransformation [16]: Compound NOT metabolized | Bacterial Biotransformation [17]: Compound NOT metabolized | Bacterial Biotransformation [18]: Compound NOT metabolized
